Test results as given in PubChem BioAssay AID179 (DTP/NCI, 2004).
Calls of active or inactive are those of the source.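 How the source made its calls: active means compounds giving half or more protection of infected cells from virus-caused growth loss, again on retest; inactive means the rest.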 Where a SMILES comes first, the peptide text is derived from it. The star is where a group is joined. Boc = CC(C)(C)OC(=O)*; OBn = c1ccc(CO*)cc1

System: CEM cells HIV-1 protection, formazan growth assay
Assay: NCI AIDS Antiviral Assay
Details: for IC50: measured here: growth of uninfected CEM cells
Method in brief: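 Steps: treat uninfected and HIV-1-infected human CEM cells at five drug levels; quantify growth by soluble formazan; retest any compound reaching 50% protection; classify actives from the retest.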

Row | Compound | EC50 [µM] | IC50 [µM] | outcome
1 | O=C1CCCC[C@H]1C(O)CC1CC(=O)N(c2ccccc2)C(=O)C1 (stereo partly specified) | > 200 | > 200 | –
2 | Cn1c(=O)cc(NCCc2ccccc2)[nH]c1=O | > 200 | 17.4 | –
3 | CC(=O)OCC1OC(n2c(-c3ccccc3)c(N=Nc3ccccc3)c(C)c(C#N)c2=S)C(OC(C)=O)C(OC(C)=O)C1OC(C)=O (stereo unspecified) | > 200 | > 200 | –
4 | CC(C)(CCCCC(C)(C)C1NC(=O)N1)C1NC(=O)N1 | > 200 | > 200 | –
5 | O=C1/C(=C\c2ccc([N+](=O)[O-])cc2)N(S(=O)(=O)c2ccccc2)c2ncccc21 | > 200 | 13.5 | –
6 | C/C(=N\Nc1ccccc1)c1sc(-c2nc(C)c(/C(C)=N/Nc3ccccc3)s2)nc1C | > 15.5 | > 15.5 | –
7 | CC(C)(C)N=C(NO)c1ccccc1 | – | – | inactive
8 | Cn1c(=O)c(NC(=O)C(Cl)(Cl)Cl)nc2ccccc21 | > 93.3 | > 93.3 | –
9 | [N-]=[N+]=Nc1ccc2c(c1)Sc1ccccc1N2CCCCN1CCN(Cc2ccc(C(=O)c3ccccc3)cc2)CC1 | > 100 | 6.03 | –
10 | COC(=O)/C=C(/C=C1/C(C#N)=C(N)N(c2ccc(Cl)cc2)C1(C)/C(=C/C(=O)OC)C(=O)OC)C(=O)OC (stereo unspecified) | > 200 | 23.4 | –
11 | C/C(=N\NC(=S)NCCNC(=S)N/N=C(\C)c1ccccn1)c1ccccn1 | > 200 | 3.39 | –
12 | COc1ccccc1/C=C(\NC(=O)c1ccccc1)C(=O)NC(C)C | > 200 | > 200 | –
13 | Cc1ccc(C(=O)CC(O)(C(F)(F)F)C(F)(F)F)cc1[N+](=O)[O-] | > 200 | 6.61 | –
14 | CC(=O)NC1COC(COC(=O)CCCCCCCCCCNC(=O)c2ccc([N+](=O)[O-])c3c(=O)c4ccccc4[nH]c23)C(O)C1OC(C)C(=O)NC(C(=O)NC(CCC(N)=O)C(=O)OCc1ccccc1)C(C)C (stereo unspecified) | > 9.55 | > 9.55 | –
15 | Cc1cccc(C)c1NC(=O)/C(Cl)=C(/Cl)C(=O)O | – | – | inactive
16 | Cc1cc(CC(=O)NCCO)n(CCO)c(=O)c1 | > 977 | > 977 | –
17 | C/C=C/COc1cc(NC(=S)c2ccoc2C)ccc1OC | 0.813 | 1.62 | –
18 | COc1cccc(/C=C2\C(=O)N(C(=O)c3ccc(NC(C)=O)cc3)N=C2C)c1 | > 36.3 | > 36.3 | –
19 | CC(=O)Nc1ccc(S(=O)(=O)Nc2ccc(S(=O)(=O)c3ccc(NC(=O)c4ccccc4SSc4ccccc4C(=O)Nc4ccc(S(=O)(=O)c5ccc(NS(=O)(=O)c6ccc(NC(C)=O)cc6)cc5)cc4)cc3)cc2)cc1 | 24 | > 100 | –
20 | CC1=C(C(=O)Nc2ccccc2)C(c2cccc3ccccc23)C(C(=O)Nc2ccccc2)=C(C)N1 | – | – | inactive
21 | c1scc2c1COCCOCCOCCOCCOC2 | > 832 | > 832 | –
22 | O=c1[nH]c(NCCCCCO)nc2nc[nH]c12 | > 200 | > 200 | –

Row | Compound | EC50 [µM] | IC50 [µM] | outcome
23 | CC(=O)c1c2c(cc3c1CC1(C3)Cc3cc4c(c(C(=O)O)c3C1)CCC4)CCC2 (stereo unspecified) | > 18.6 | > 18.6 | –
24 | Cc1cc(N(CCC#N)S(C)(=O)=O)ccc1C=Nc1ccc(C(=O)NN2C(=O)/C(=C/c3ccc(N(CCC#N)CCC#N)cc3C)N=C2c2cc([N+](=O)[O-])ccc2Cl)cc1 | > 42.7 | > 42.7 | –
25 | NNC(=O)c1nnn(CCc2ccccc2)c1C(=O)NN | > 200 | > 200 | –
26 | CCn1c(SCC(=O)N/N=C/c2ccccc2)nc2ccccc2c1=O | > 200 | 23.4 | –
27 | O=[As](O)(O)c1ccc(OCCO)cc1 | > 200 | > 200 | –
28 | O=C(CCc1ccc(O)cc1)NCCc1cccc(OCc2ccccc2)c1 | > 200 | 26.3 | –
29 | O=C(NN1CCOC1=O)OCCCl | > 200 | > 200 | –
30 | CNC1c2ccccc2C(=O)c2cc3c(cc21)OCCOCCOCCOCCO3 (stereo unspecified) | > 200 | 36.3 | –
31 | O=c1oc2ccccc2c(O)c1/C=N/C(=S)NCc1ccccc1 | > 200 | > 200 | –
32 | CCOC(=O)P(=O)(O)c1ccc(N(C)Cc2ccccc2)cc1 | > 200 | > 200 | –
33 | N#CC(C#N)=Cc1cc(Cl)ccc1O | > 200 | 29.5 | –
34 | CCCC1OC(CCC)C2CCCOC2O1 (stereo unspecified) | > 200 | > 200 | –
35 | CC(=O)NC1c2ccccc2C(C)(C)C12CCC1(CC2)OCCO1 (stereo unspecified) | > 200 | > 200 | –
36 | O=C(O)c1cc(C(=CCC23CC4CC(CC(C4)C2)C3)c2cc(Cl)c(O)c(C(=O)O)c2)cc(Cl)c1O | > 200 | 105 | –
37 | CC(C)(C)OC(=O)NS(=O)(=O)Nc1ccccc1 | > 200 | > 200 | –
38 | Cc1cccc(NC2=NCCO2)c1Cl | > 200 | 105 | –
39 | COc1ccc(C(C#N)NNC(=O)Cc2ccccc2)cc1OC (stereo unspecified) | > 398 | 331 | –
40 | O=C1OCC(CN2CCC(n3c(=O)[nH]c4ccccc43)CC2)=C1c1ccccc1 | > 200 | 30.9 | –
41 | [N-]=[N+]=NC1C[C@H](n2cc(/C=C/Br)c(=O)[nH]c2=O)C[C@@H]1CO (stereo partly specified) | > 363 | 355 | –
42 | O=c1ccn(C2OC(CO)C(F)C2F)c(=O)[nH]1 (stereo unspecified) | > 501 | > 501 | –
43 | Nc1nc2sc3ccccc3c(=O)n2n1 | > 91.2 | > 91.2 | –
44 | O=C(NCCc1c[nH]c2ccccc12)C1CCCCC1 | > 200 | 67.6 | –

Row | Compound | EC50 [µM] | IC50 [µM] | outcome
45 | CCOc1cccc(C=Nc2ccccc2SSc2ccccc2N=Cc2cccc(OCC)c2O)c1O | > 100 | 5.13 | –
46 | CCOc1ccccc1NC(=O)C1=C(C)NC(C)=C(C(=O)Nc2ccccc2OCC)C1c1ccc(NC(C)=O)cc1 | > 12.6 | > 12.6 | –
47 | COc1ccc(-c2c(C(C)=O)c(C)n(C3OC(COC(C)=O)C(OC(C)=O)C(OC(C)=O)C3OC(C)=O)c(=S)c2C#N)cc1 (stereo unspecified) | > 200 | 87.1 | –
48 | Cc1ccc(S(=O)(=O)n2ccnc2)cc1 | > 200 | > 200 | –
49 | CSC(=NCCc1c[nH]c2ccccc12)NC#N | > 200 | > 200 | –
50 | C[Si](C)(C)C#CC#C[Si](C)(C)C.[C-]#[O+].[C-]#[O+].[C-]#[O+].[C-]#[O+].[C-]#[O+].[C-]#[O+].[C-]#[O+].[C-]#[O+].[C-]#[O+].[C-]#[O+].[C-]#[O+].[C-]#[O+].[Co].[Co].[Co].[Co] | > 1.91 | > 1.91 | –
51 | Cc1ccc(NC(=S)Nc2ccc(C)cn2)nc1 | > 200 | > 200 | –
52 | NS(=O)(=O)c1ccc(N=Cc2cc(Cl)cc(Cl)c2O)cc1 | > 200 | 16.6 | –
53 | COc1ccc(/C=C(\C(=C/c2ccc(OC)cc2)[N+](=O)[O-])[N+](=O)[O-])cc1 | > 200 | 4.57 | –
54 | NC(=S)N/N=C1/C(=O)N(c2ccc(Cl)cc2Cl)C(=O)C(=O)C1c1nc2ccccc2s1 (stereo unspecified) | > 72.4 | > 72.4 | –
55 | Nc1nc2c3nc(Nc4ccccc4)sc3nc(=O)n2c2sc(Nc3ccccc3)nc12 | > 5.89 | > 5.89 | –
56 | CC(=O)c1ccc(NC(=O)C(=O)C(C(=O)/C=C/c2ccccc2)C2OC(=O)c3ccccc32)cc1 (stereo unspecified) | > 282 | 148 | –
57 | O=c1ccn2n1Cc1ccccc1C2 | > 200 | > 200 | –
58 | CCCCOC(=O)C1CN2C=CC=NC2=NC1(C(F)(F)F)C(F)(F)F (stereo unspecified) | – | – | inactive
59 | COc1ccc2c3c(cnc2c1)P(C)(=O)CC3 (stereo unspecified) | – | – | inactive
60 | CNc1nc(N)[nH]c(=O)c1N=O | – | – | inactive
61 | COC(=O)c1ccc(CSc2ccc(Cl)cc2)cc1 | > 4.9 | 3.55 | –
62 | O=c1oc2c/c(=C\c3ccccn3)c(=O)c3cccc1c3-2 | > 200 | 3.72 | –
63 | CC[C@@H]1OC2(C)CC(S(=O)(=O)c3ccccc3)CC1O2 (stereo partly specified) | 26.3 | 170 | –
64 | CC(=O)c1cc(-c2ccccn2)c(=O)n2ccccc12 | > 200 | 112 | –
65 | CCOC(=O)c1sc2c(c1OC(=O)c1ccc(Cl)cc1Cl)c(=O)n(-c1ccccc1)c(=S)n2-c1ccccc1 | > 200 | 0.0871 | –
66 | CCOC(=O)NNC(=O)NCc1ccccc1CNC(=O)NNC(=O)OCC | > 200 | > 200 | –

Row | Compound | EC50 [µM] | IC50 [µM] | outcome
67 | O=C1/C(=C/c2ccccc2Cl)Cc2ccccc21 | > 5.37 | > 5.37 | –
68 | COc1ccc2c(c1)N(S(=O)(=O)c1ccc(C)cc1)C[C@@H]1c3cc(O)c(OCc4ccccc4)cc3O[C@H]21 | – | – | inactive
69 | CC(C)CC(NC(=O)OC(C)(C)C)C(=O)NC(CC(=O)OCc1ccccc1)C(N)=O (stereo not drawn) (Boc-Leu-Asp(OBn)-NH2; configuration not given here) | > 200 | > 200 | –
70 | Nc1ccc(C(=O)NN2C(=O)C(Cl)C2c2cccc(O)c2)cc1 (stereo unspecified) | > 200 | 9.55 | –
71 | NC(=O)C1=CN(Cc2ccc(F)cc2)c2ccccc2C1S(=O)(=O)O (stereo unspecified) | – | 245 | inactive
72 | O=S(Nc1ccccc1)c1ccc(Cl)cc1 (stereo unspecified) | > 200 | 81.3 | –
73 | C1=Cc2nc1c(-c1ccccc1)c1ccc([nH]1)c(-c1ccccc1)c1nc(c(-c3ccccc3)c3ccc([nH]3)c2-c2ccccc2)C=C1 | > 2.34 | > 2.34 | –
74 | O=C1C(Cl)=CC(=C2C=C(Cl)C(=O)C(Cl)=C2)C=C1Cl | > 200 | 42.7 | –
75 | Cc1ccc(S(=O)(=O)NCCCSCCO)cc1 | > 871 | 5.75 | –
76 | COc1ccc(CNc2nc3cc(C(F)(F)F)ccc3nc2C(=O)O)cc1OC | > 200 | 66.1 | –
77 | Cc1cn(C2CC(N)C(C(=O)NCC(=O)O)O2)c(=O)[nH]c1=O (stereo unspecified) | > 200 | > 200 | –
78 | CCCCCCCCCCCCC(C(=O)O)C(=O)O | > 251 | > 251 | –
79 | Cc1nc2ccc(Cl)cc2c2c1CCS2 | > 200 | 117 | –
80 | O=C(/C=C/c1ccc([N+](=O)[O-])o1)N1CCN(Cc2ccccc2)CC1 | > 95.5 | 11.2 | –
81 | NNc1nnc(-c2nnc(NN)o2)o1 | > 200 | > 200 | –
82 | Clc1ccc(Cl)c(SSc2cc(Cl)ccc2Cl)c1 | – | – | inactive
83 | Cc1ccc(S(=O)(=O)SCCN)cc1 | > 115 | > 100 | –
84 | CCCNC1(C(N)=O)CCN(Cc2ccccc2)CC1 | > 200 | > 200 | –
85 | COc1ccc2c(c1)C1=C(CC2)C(=O)OC1=O | – | – | inactive
